Assay results reported in patent US20240116918A1, “SUBSTITUTED TRICYCLIC COMPOUND AS PRMT5 INHIBITOR AND USE THEREOF” (NANJING SANHOME PHARMACEUTICAL CO., LTD., priority 2019, published 2024).

Tested on: Z-138 cells
Assay: In vitro cell activity, Z-138 cells, CellTiter-Glo
Assay type: cell-based
Conditions: Z-138, 168 h, human mantle cell lymphoma cells, 7 days
Description: Test compounds: the compounds of the present invention prepared in the above example. Each compound was formulated into a 10 mM stock solution with DMSO, and finally diluted into 8 concentrations for detection, with the final concentrations being 33333.00 nM, 6666.60 nM, 1333.32 nM, 266.66 nM, 53.33 nM, 10.67 nM, 2.13 nM, and 0.43 nM for experiments in Z-138 cells.
2.1.1 Z-138 cell thawing: The cryovial for Z-138 cells was taken out from a liquid nitrogen tank and placed in a 37° C. water bath, and shaken gently for thawing as soon as possible. After thawing, the cryovial was taken out, and sterilized with an alcohol cotton ball, after which the cap was unscrewed. The cell fluid was drawn and injected into a centrifuge tube. 1 mL of complete medium containing 10% horse serum was added, and mixed uniformly. The tube was placed in a centrifuge, and centrifuged at 1000 rpm for 5 min. Afterwards, the supernatant was discarded, and complete medium was added. The mixture was pipetted repeatedly until the cells were completely dispersed and resuspended. The mixture was inoculated in a petri dish at an appropriate concentration, and cultured in a CO2 incubator at 37° C., 5% CO2, and 95% humidified air.
2.2.1 Z-138 cell culture and passage: The cells grew to about 80-90%. The medium (IMDM medium+10% horse serum+1% penicillin-streptomycin) was transferred to a 15 mL centrifuge tube, and centrifuged at 1000 rpm for 5 min. The supernatant was removed. The cells were resuspended in complete medium, and inoculated in a petri dish at the desired density. The dish was placed in an incubator at 37° C., 5% CO2, and 95% humid air. The culture medium was replenished every 2-3 days or the passage was carried out, depending on the cell growth.
After passage, Z-138 cells were resuspended in complete medium at a density of 1000 cells/well and inoculated in a 96-well culture plate. The 36 wells at the outer circumference of the 96-well plate were filled with 200 μL of PBS to prevent the culture conditions of the inner plate wells from being too different from each other due to the faster evaporation of medium at the edge. The leftmost column of the 60 inner wells were blank wells, which were not added with cells, but filled with equal volume of PBS. The remaining 54 wells were subjected to cell plating with a multichannel pipette, to each well was added 100 μL of culture medium containing corresponding cells. After cell plating was finished, the 96-well plate was tapped to make the cells evenly suspended, and placed in a 5% CO2 incubator and cultured at 37° C. for 24 h.
For Z-138 cells, in addition to the original medium (100 μL), 50 μL (3×) of drug was added, and duplicate wells were set for each concentration group. The plate was placed in a CO2 incubator and further cultured for 7 days. […]

SMILES	IC50
CC(=O)N1CCC(Nc2cc(C(=O)NC[C@H](O)CN3CCc4ccccc4C3)ncn2)CC1 [Compound A, (S)-6-((1-Acetylpiperidin-4-yl)amino)-N-(3-(3,4-dihydroisoquinolin-2(1H)-yl)-2-hydroxypropyl)pyrimidine-4-carboxamide]	19.5 nM
CC(=O)N1CCC(Nc2ccc3c(c2)C(=O)N(C[C@H](O)CN2CCc4ccccc4C2)CC32CC2)CC1 [Compound B, (R)-7′-((1-Acetylpiperidin-4-yl)amino)-2′-(3-(3,4-dihydroisoquinolin-2(1H)-yl)-2-hydroxypropyl)-2′,3′-dihydro-1′H-spiro[cyclopropane-1,4′-isoquinolin]-1′-one, reference compound]	4.33 nM
CC(=O)N1CCC(Nc2cc3c(cn2)C2(CC2)CN(C[C@H](O)CN2CCc4ccccc4C2)C3=O)CC1 [Example 1, (R)-7′-((1-acetylpiperidin-4-yl)amino)-2′-(3-(3,4-dihydroisoquinolin-2(1H)-yl)-2-hydroxypropyl)-2′,3′-dihydro-1′H-spiro[cyclopropane-1,4′-[2,6]naphthyridin]-1′-one]	3.07 nM
CC(=O)N1CC2(CC(Nc3cc4c(cn3)C3(CC3)CN(C[C@H](O)CN3CCc5ccccc5C3)C4=O)C2)C1 [Example 2, (R)-7′-((2-acetyl-2-azaspiro[3.3]hept-6-yl)amino)-2′-(3-(3,4-dihydroisoquinolin-2(1H)-yl)-2-hydroxypropyl)-2′,3′-dihydro-1′H-spiro[cyclopropane-1,4′-[2,6]naphthyridin]-1-one]	2.2 nM
